This is an account of results in paper PMC12090182, “Repurposing of the RIPK1-Selective Benzo[1,4]oxazepin-4-one Scaffold for the Development of a Type III LIMK1/2 Inhibitor” (ACS Chemical Biology, 2025).

Assay in all cases: biochemical
Holding throughout (type): binding

For one assay, the target named is RET(V804M) (Homo sapiens, UniProt P07949, V804M). The following applies: 1000 nM, read-out: Percent Control.
Assay [1] concerns the target T1, BRAF(V600E) (Homo sapiens, UniProt P15056, V600E). The settings on record: 1000 nM, read-out: Percent Control.
The next assay has as its target EGFR(L858R) (Homo sapiens, UniProt P00533, L858R). The following applies: 1000 nM, read-out: Percent Control.
The target in assay [2] is T1, BRAF(V600E). The settings on record: compound concentration 100 nM; Entrez BRAF; read-out: Percent Control.
In a further assay the target is EGFR(L858R,T790M) (Homo sapiens, UniProt P00533, L858R/T790M). The settings on record: compound concentration 100 nM; Entrez EGFR; read-out: Percent Control.
Chain of EGFR(L858R,T790M) (P00533 25-1210 T790M/L858R): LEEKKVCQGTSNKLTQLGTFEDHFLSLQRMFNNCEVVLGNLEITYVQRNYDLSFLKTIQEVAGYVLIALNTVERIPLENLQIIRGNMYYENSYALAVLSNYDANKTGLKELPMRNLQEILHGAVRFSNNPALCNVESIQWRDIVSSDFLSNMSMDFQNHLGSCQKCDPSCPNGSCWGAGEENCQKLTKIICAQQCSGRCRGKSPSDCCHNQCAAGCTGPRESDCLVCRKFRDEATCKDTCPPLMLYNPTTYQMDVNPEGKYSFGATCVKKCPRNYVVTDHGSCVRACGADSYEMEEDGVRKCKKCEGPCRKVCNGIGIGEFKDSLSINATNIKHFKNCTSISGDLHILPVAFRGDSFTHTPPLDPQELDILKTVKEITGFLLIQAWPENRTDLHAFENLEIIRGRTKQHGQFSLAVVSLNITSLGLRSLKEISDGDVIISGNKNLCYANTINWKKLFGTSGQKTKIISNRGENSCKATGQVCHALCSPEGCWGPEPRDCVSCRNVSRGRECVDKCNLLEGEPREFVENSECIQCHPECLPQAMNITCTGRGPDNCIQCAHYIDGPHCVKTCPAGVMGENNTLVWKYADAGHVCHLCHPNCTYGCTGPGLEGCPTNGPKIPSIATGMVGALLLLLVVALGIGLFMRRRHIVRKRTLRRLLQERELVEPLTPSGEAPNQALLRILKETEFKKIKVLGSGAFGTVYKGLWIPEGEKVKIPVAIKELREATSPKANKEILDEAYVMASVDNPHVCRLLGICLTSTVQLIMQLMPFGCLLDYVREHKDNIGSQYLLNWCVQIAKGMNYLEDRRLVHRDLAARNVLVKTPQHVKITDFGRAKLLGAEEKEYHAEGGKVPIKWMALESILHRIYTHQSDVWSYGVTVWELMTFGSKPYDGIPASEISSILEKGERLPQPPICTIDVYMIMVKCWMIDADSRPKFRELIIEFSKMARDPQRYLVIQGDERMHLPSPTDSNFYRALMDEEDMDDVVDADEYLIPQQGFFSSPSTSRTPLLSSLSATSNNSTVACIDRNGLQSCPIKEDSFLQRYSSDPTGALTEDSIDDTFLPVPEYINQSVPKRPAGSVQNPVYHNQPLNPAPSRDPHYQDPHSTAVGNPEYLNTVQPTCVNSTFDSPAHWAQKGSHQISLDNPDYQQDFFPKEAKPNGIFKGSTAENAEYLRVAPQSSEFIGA

T1 sequence (P15056 whole entry V600E): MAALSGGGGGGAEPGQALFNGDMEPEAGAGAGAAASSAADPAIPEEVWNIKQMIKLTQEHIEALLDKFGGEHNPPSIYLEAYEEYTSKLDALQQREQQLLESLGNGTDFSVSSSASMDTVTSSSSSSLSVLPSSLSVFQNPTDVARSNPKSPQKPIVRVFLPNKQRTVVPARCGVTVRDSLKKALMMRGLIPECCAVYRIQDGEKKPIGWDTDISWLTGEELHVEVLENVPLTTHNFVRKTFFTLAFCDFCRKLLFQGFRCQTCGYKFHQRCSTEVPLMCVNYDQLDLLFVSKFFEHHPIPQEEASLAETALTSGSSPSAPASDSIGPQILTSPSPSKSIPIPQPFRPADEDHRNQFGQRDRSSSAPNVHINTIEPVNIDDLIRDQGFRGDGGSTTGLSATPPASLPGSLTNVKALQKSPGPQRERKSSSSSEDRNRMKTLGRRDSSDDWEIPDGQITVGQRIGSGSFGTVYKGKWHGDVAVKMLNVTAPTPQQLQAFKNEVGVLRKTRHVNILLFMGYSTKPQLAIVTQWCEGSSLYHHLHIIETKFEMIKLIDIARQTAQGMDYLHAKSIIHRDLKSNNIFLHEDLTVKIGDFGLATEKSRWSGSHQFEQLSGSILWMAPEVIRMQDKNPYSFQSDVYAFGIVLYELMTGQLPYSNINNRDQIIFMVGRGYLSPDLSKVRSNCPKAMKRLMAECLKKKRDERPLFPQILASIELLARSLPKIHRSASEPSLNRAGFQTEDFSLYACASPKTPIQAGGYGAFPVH
Chain of EGFR(L858R) (P00533 25-1210 L858R): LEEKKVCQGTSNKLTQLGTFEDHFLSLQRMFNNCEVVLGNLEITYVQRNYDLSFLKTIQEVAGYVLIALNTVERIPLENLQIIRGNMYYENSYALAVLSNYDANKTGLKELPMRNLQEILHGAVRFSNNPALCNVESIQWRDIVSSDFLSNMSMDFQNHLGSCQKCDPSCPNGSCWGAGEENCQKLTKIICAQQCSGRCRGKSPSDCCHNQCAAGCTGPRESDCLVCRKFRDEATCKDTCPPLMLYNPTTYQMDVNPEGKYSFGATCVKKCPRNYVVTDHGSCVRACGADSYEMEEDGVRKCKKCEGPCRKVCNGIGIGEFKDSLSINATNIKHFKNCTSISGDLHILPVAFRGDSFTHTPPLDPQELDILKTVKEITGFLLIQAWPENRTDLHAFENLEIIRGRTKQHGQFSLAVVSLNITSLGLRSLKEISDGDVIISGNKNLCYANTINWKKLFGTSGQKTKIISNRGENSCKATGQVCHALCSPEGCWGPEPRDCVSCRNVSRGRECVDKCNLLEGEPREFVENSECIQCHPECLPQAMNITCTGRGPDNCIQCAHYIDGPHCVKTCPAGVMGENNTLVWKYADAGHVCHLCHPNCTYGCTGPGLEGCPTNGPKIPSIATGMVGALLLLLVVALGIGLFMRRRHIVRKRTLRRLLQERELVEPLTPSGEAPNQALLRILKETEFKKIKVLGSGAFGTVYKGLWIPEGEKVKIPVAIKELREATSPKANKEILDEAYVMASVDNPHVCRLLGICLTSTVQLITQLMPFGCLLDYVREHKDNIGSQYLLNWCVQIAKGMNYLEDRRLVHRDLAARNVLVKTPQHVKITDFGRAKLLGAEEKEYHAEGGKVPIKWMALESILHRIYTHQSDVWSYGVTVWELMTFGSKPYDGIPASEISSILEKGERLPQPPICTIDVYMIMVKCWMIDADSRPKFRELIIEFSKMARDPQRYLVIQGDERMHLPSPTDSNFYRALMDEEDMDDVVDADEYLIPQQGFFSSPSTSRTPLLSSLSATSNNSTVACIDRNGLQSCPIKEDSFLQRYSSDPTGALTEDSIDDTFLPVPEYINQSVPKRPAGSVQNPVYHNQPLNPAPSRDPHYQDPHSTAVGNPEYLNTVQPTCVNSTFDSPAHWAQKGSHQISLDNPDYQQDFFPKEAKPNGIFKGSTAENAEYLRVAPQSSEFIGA
Chain of RET(V804M) (P07949 29-1114 V804M): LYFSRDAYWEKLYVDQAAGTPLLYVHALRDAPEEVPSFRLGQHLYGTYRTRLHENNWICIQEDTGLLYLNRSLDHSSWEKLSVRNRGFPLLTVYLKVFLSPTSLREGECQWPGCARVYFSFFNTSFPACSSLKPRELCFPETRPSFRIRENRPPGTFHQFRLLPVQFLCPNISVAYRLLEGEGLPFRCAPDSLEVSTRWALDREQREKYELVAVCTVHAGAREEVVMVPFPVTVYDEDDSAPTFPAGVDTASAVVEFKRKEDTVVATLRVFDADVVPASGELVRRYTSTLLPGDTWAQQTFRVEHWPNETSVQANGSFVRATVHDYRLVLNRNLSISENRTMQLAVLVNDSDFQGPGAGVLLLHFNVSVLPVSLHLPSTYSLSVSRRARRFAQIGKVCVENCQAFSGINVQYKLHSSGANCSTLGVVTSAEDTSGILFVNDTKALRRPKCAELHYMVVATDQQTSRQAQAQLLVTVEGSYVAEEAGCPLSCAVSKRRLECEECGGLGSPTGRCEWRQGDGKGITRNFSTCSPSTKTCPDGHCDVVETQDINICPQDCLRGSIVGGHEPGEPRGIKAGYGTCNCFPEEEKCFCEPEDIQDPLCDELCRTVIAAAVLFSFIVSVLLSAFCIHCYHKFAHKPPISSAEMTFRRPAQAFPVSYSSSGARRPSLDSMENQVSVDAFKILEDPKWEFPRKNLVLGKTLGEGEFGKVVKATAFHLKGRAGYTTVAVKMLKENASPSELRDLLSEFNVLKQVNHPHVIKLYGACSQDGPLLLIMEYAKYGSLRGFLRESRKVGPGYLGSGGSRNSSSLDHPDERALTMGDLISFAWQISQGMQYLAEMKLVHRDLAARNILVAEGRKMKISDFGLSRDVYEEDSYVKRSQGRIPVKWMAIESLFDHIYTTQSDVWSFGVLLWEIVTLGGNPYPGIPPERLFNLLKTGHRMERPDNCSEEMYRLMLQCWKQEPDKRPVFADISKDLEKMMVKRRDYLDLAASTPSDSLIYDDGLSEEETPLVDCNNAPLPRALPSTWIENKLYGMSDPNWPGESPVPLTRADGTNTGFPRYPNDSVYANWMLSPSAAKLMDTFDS

For the compound `CN1C(=O)[C@@H](N2CCc3c(nn(Cc4ccccc4)c3C(N)=O)C2=O)COc2cc(Cl)ccc21` [Compound 10, (S)-2-benzyl-6-(8-chloro-5-methyl-4-oxo-2,3,4,5-tetrahydrobenzo[b][1,4]oxazepin-3-yl)-7-oxo-4,5,6,7-tetrahydro-2H-pyrazolo[3,4-c]pyridine-3-carboxamide], the remaining activity at 1 µM is 93% at RET(V804M), 100% on BRAF(V600E) [1] and 100% on EGFR(L858R). The remaining activity at 0.1 µM at BRAF(V600E) [2] and at EGFR(L858R,T790M) was 100% throughout.
